Source: US11851418B2, “Heteroaromatic carboxamide derivatives as plasma kallikrein inhibitors” (Boehringer Ingelheim International GmbH, priority 2020, dated 2023)

Tests used:
Assay type in all cases: biochemical
Human PKK = target: T1, Human PKK (Homo sapiens, UniProt P03952); test: Inhibition of PKK using an endpoint assay; conditions: fluorogenic substrate H-Pro-Phe-Arg-AMC, 1 h at room temperature
T1 construct: purchased Enzyme Research Laboratories
Method: (§1) The ability of compounds of formula (I) to inhibit plasma kallikrein (PKK), Factor XIIa (FXIIa), Factor XIa (FXIa), Factor Xa (FXa), Factor IIa (alpha-thrombin; FIIa), plasmin, trypsin, tissue kallikrein 1 (TK1), Factor Vila (FVIIa), or FVIIa complexed with Tissue Factor, phospholipids and CaCl2 (FVIIa/TF/PL/CaCl2) is determined using the following biochemical assays in assay buffer (100 mM Tris, 150 mM NaCL, adjusted to a pH of 7.8 with HCl, and containing 0.1% (w/v) BSA and 0.05% (v/v) Tween20) in the presence of 1% (v/v) DMSO:
Subsequently, PPACK 11 (Calbiochem) is added as a stop solution to achieve a final concentration of 1 μM and fluorescence is measured using an Envision Reader (PerkinElmer) with the wavelength excitation setting of 355 nm and the wavelength emission setting of 460 nm.

[1] = target: T2, PKK in kaolin activated human platelet poor plasma (Homo sapiens, UniProt P03952); test: Inhibition of PKK in kaolin activated human PPP; conditions: kaolin (25, 75, 250, 750 μg/mL) activated human PPP, global fit
T2 construct: Platelet poor plasma (PPP) obtained from human wholeblood; from tissue
Method: Platelet poor plasma (PPP) obtained from human wholeblood, anticoagulated with Na-Citrate, is incubated with various concentrations of the test compound together with either 25, 75, 250, or 750 μg/mL kaolin in assay buffer for 20 min at 37° C. such that for each kaolin dose used a concentration response is obtained for the test compound.

human TK1 = target: T3, human TK1 (Homo sapiens, UniProt P06870); test: Inhibition of TK1 (Ki); conditions: activated human TK1, substrate H-Pro-Phe-Arg-AMC, 24° C.; Ki from IC50 corrected for KM
T3 construct: purchased R&D Systems
Method: as §1
Prior to the assay, human TK1 (R&D Systems) is activated by incubation with human trypsin (Calbiochem) in a 1:10,000 ratio for 15 min at 37° C. For assaying TK1 inhibitory activity, activated TK1 (31.25 nM or 1 U/mL) is incubated at 24° C. with 0.1 mM fluorogenic substrate H-Pro-Phe-Arg-AMC (I1295 from Bachem) and various concentrations of the test compound in assay buffer. Measurements are performed in a kinetic interval every 2nd minute for 16 min using a Spectramax M5 (Molecular Devices) with the following settings of the wavelength excitation of 350 nm and wavelength emission of 450 nm.
The pIC50 values are then fitted using a four-parametric fitting procedure using GraphPad Prism (version 6; GraphPad Software, Inc.). […]

T1 sequence (P03952 391-638 limits assumed): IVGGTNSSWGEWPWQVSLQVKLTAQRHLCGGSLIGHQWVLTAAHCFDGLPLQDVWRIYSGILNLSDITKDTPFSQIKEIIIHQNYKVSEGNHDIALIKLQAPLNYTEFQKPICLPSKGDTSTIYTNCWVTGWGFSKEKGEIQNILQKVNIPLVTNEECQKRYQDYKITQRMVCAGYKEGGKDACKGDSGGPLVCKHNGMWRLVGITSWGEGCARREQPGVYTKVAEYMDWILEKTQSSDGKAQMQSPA
T1 sequence (P03952 20-390 partner limits assumed): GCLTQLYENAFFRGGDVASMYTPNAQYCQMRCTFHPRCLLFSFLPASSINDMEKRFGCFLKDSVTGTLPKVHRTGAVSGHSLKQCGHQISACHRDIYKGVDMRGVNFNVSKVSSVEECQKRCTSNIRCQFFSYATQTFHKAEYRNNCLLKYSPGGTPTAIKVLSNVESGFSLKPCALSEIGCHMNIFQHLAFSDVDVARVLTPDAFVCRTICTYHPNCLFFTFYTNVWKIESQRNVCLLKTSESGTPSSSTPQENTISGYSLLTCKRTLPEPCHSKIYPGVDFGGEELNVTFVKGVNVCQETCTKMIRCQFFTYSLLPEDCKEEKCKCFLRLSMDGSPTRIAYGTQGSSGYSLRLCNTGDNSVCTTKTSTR
T2 sequence (P03952 391-638 limits assumed): as the sequence (P03952 391-638 limits assumed) above
T2 sequence (P03952 20-390 partner limits assumed): as the sequence (P03952 20-390 partner limits assumed) above
T3 sequence (P06870 25-262): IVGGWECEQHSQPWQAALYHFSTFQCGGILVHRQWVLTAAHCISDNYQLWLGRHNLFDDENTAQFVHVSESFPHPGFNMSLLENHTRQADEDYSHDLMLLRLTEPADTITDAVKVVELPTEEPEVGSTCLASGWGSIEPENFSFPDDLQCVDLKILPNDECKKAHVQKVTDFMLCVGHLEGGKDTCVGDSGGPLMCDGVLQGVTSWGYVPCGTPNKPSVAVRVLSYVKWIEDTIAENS

Row | SMILES | IC50 (Human PKK) [nM] | IC90 [1] [nM] | Ki (human TK1) [nM]
1 | Cc1[nH]nc2c1CC[C@H]2NC(=O)c1cnn(Cc2ccc(N3CC4(CC4)C3)nc2C(F)F)c1 [Example 1, 1-[(6-{5-Azaspiro[2.3]hexan-5-yl}-2-(difluoromethyl)pyridin-3-yl)methyl]-N-[(6R)-3-methyl-2H,4H,5H,6H-cyclopenta[c]pyrazol-6-yl]-1H-pyrazole-4-carboxamide] | 0.8 | 182 | –
2 | Cc1[nH]nc2c1CC[C@H]2NC(=O)c1cn(Cc2ccc(N3CC4CC4C3)nc2C(F)F)nn1 (stereo partly drawn) [Example 3, 1-[(6-{3-Azabicyclo[3.1.0]hexan-3-yl}-2-(difluoromethyl)-pyridin-3-yl)methyl]-N-[(6R)-3-methyl-2H,4H,5H,6H-cyclo-penta[c]pyrazol-6-yl]-1H-1,2,3-triazole-4-carboxamide] | 0.9 | 486 | –
3 | Cc1[nH]nc2c1CC[C@H]2NC(=O)c1cn(Cc2ccc(N3CC4(CC4)C3)nc2C(F)F)nn1 [Example 4, 1-[(6-{5-Azaspiro[2.3]hexan-5-yl}-2-(difluoromethyl)pyridin-3-yl)methyl]-N-[(6R)-3-methyl-2H,4H,5H,6H-cydopenta[c]-pyrazol-6-yl]-1H-1,2,3-triazole-4-carboxamide] | – | 122 | –
4 | Cc1[nH]nc2c1CC[C@H]2NC(=O)c1cnn(Cc2cnc(N3CC4CC4C3)nc2C(F)F)c1 (stereo partly drawn) [Example 2, 1-[(2-{3-Azabicyclo[3.1.0]hexan-3-yl}-4-(difluoromethyl)-pyrimidin-5-yl)methyl]-N-[(6R)-3-methyl-2H,4H,5H,6H-cyclopenta[c]pyrazol-6-yl]-1H-pyrazole-4-carboxamide] | 1.8 | 499 | –
5 | Cc1[nH]nc2c1CC[C@H]2NC(=O)c1cn(Cc2ccc(N3CC4(CC4)C3)nc2C(F)F)cn1 [Example 5, 1-[(6-{5-Azaspiro[2.3]hexan-5-yl}-2-(difluoromethyl)-pyridin-3-yl)methyl]-N-[(6R)-3-methyl-2H,4H,5H,6H-cyclopenta[c]pyrazol-6-yl]-1H-imidazole-4-carboxamide] | – | 149 | –

Second part, the compound after the results:

Row | IC50 (Human PKK) [nM] | IC90 [1] [nM] | Ki (human TK1) [nM] | SMILES
6 | – | 293 | – | Cc1[nH]nc2c1CC[C@H]2NC(=O)c1cn(Cc2ccc(N3CC4CC4C3)nc2C(F)F)cn1 (stereo partly drawn) [Example 6, 1-[(6-{3-Azabicyclo[3.1.0]hexan-3-yl}-2-(difluoromethyl)-pyridin-3-yl)methyl]-N-[(6R)-3-methyl-2H,4H,5H,6H-cyclopenta[c]pyrazol-6-yl]-1H-imidazole-4-carboxamide]
7 | 1.8 | 539 | > 10000 | Cc1[nH]nc2c1CC[C@H]2NC(=O)c1cn(Cc2cnc(N3CC4CC4C3)cc2C(F)(F)F)cn1 (stereo partly drawn) [Example 9, 1-[(6-{3-Azabicyclo[3.1.0]hexan-3-yl}-4-(trifluoromethyl)-pyridin-3-yl)methyl]-N-[(6R)-3-methyl-2H,4H,5H,6H-cyclopenta[c]pyrazol-6-yl]-1H-imidazole-4-carboxamide]
8 | 2.1 | 305 | – | Cc1[nH]nc2c1CC[C@H]2NC(=O)c1cn(Cc2cnc(N3CC4CC4C3)nc2C(F)F)cn1 (stereo partly drawn) [Example 8, 1-[(2-{3-Azabicyclo[3.1.0]hexan-3-yl}-4-(difluoromethyl)-pyrimidin-5-yl)methyl]-N-[(6R)-3-methyl-2H,4H,5H,6H-cyclopenta[c]pyrazol-6-yl]-1H-imidazole-4-carboxamide]
9 | – | 236 | – | Cc1[nH]nc2c1CC[C@H]2NC(=O)c1cn(Cc2ccc(N3CC4C(C3)C4(F)F)nc2C(F)F)cn1 (stereo partly drawn) [Example 11, 1-[(6-{6,6-Difluoro-3-azabicyclo[3.1.0]hexan-3-yl}-2-(difluoromethyl)pyridin-3-yl)methyl]-N-[(6R)-3-methyl-2H,4H,5H,6H-cyclopenta-[c]pyrazol-6-yl]-1H-imidazole-4-carboxamide]
10 | 1.9 | 746 | > 10000 | Cc1[nH]nc2c1CC[C@H]2NC(=O)c1cnn(Cc2ccc(N3CC4CC4C3)nc2C(F)(F)F)c1 (stereo partly drawn) [Example 13, 1-[(6-{3-Azabicyclo[3.1.0]hexan-3-yl}-2-(trifluoromethyl)pyridin-3-yl)methyl]-N-[(6R)-3-methyl-2H,4H,5H,6H-cyclopenta[c]pyrazol-6-yl]-1H-pyrazole-4-carboxamide]
11 | – | 242 | – | Cc1[nH]nc2c1CC[C@H]2NC(=O)c1cnn(Cc2ccc(N3CC4C(C3)C4(F)F)nc2C(F)F)c1 (stereo partly drawn) [Example 10, 1-[(6-{6,6-Difluoro-3-azabicyclo[3.1.0]hexan-3-yl}-2-(difluoromethyl)pyridin-3-yl)methyl]-N-[(6R)-3-methyl-2H,4H,5H,6H-cyclopenta-[c]pyrazol-6-yl]-1H-pyrazole-4-carboxamide]
12 | – | 195 | – | Cc1[nH]nc2c1CC[C@H]2NC(=O)c1cnn(Cc2ccc(N3CC4CC4C3)nc2C(F)F)c1 (stereo partly drawn) [Example 7, 1-[(6-{3-Azabicyclo[3.1.0]hexan-3-yl}-2-(difluoromethyl)-pyridin-3-yl)methyl]-N-[(6R)-3-methyl-2H,4H,5H,6H-cyclopenta[c]pyrazol-6-yl]-1H-pyrazole-4-carboxamide]
13 | 2.6 | – | – | Cc1[nH]nc2c1CC[C@H]2NC(=O)c1cnn(Cc2cnc(N3CC4CC4C3)cc2C(F)(F)F)c1 (stereo partly drawn) [Example 12, 1-[(6-{3-Azabicyclo[3.1.0]hexan-3-yl}-4-(trifluoromethyl)-pyridin-3-yl)methyl]-N-[(6R)-3-methyl-2H,4H,5H,6H-cyclopenta[c]pyrazol-6-yl]-1H-pyrazole-4-carboxamide]
